Measured values as given in patent US9884832B2 (priority 2011, dated 2018).

Molecular target: AM2 S31 (wild-type serine at position 31 in the M2 protein), influenza virus A/Udorn/72 (Influenza A virus, UniProt P0DOF5)
Assay: cell-based
Conditions: 100 uM; Xenopus oocytes; activity range class; read-out: S31 OOcyte Inhibition at 100 uM (%)

Chain of AM2 S31 (wild-type serine at position 31 in the M2 protein), influenza virus A/Udorn/72 (P0DOF5 whole entry, looked up): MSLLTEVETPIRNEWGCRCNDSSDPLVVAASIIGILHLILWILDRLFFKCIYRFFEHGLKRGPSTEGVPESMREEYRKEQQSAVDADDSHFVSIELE

| SMILES | inhibition at 100 µM [%] |
| --- | --- |
| C(#Cc1ccccc1)CNC12CC3CC(CC(C3)C1)C2 [Example 198a, N-(3-phenylprop-2-yn-1-yl)adamantan-1-amine] | 0 to 30 |
| Clc1cc2cc(CNC34CC5CC(CC(C5)C3)C4)sc2s1 [Example 173a, Adamantan-1-yl-(5-chloro-thieno[2,3-b]thiophen-2-ylmethyl)-amine] | 31 to 95 |
| COc1ccc(CNC23CC4CC(CC(C4)C2)C3)s1 [Example 75a, N-((5-methoxythiophen-2-yl)methyl)adamantan-1-amine] | 31 to 95 |
| c1cc(CNC23CC4CC(CC(C4)C2)C3)cs1 [Example 68a, Adamantan-1-yl-thiophen-3-ylmethyl-amine] | 31 to 95 |
| Cc1ccc(CNC23CC4CC(CC(C4)C2)C3)s1 [Example 78a, N-((5-methylthiophen-2-yl)methyl)adamantan-1-amine] | 31 to 95 |
| c1csc(-c2ccc(CNC3C4CC5CC(C4)CC3C5)s2)c1 (stereo not shown) [Example 205a, N-([2,2′-bithiophen]-5-ylmethyl)adamantan-2-amine] | 0 to 30 |
| O=c1[nH]cc(CNC23CC4CC(CC(C4)C2)C3)c(=O)[nH]1 [Example 169a, 5-((adamantan-1-ylamino)methyl)pyrimidine-2,4(1H,3H)-dione] | 0 to 30 |
| c1ccc2nc(CNC34CC5CC(CC(C5)C3)C4)ccc2c1 [Example 56a, Adamantan-1-yl-quinolin-2-ylmethyl-amine] | 31 to 95 |
| c1coc(CNC23CC4CC(CC(C4)C2)C3)c1 [Example 69a, Adamantan-1-yl-furan-2-ylmethyl-amine] | 31 to 95 |
| Cc1csc2sc(CNC34CC5CC(CC(C5)C3)C4)c(C)c12 [Example 176a] | 0 to 30 |
| c1c(CNC23CC4CC(CC(C4)C2)C3)noc1CN1CCOCC1 [Example 106a, N-((5-(morpholinomethyl)isoxazol-3-yl)methyl)adamantan-1-amine] | 0 to 30 |
| c1coc(-c2ccc(CNC34CC5CC(CC(C5)C3)C4)cc2)c1 [Example 31a, N-(4-(Furan-2-yl)benzyl)adamantan-1-amine] | 0 to 30 |
| Clc1ccc(CNC23CC4CC(CC(C4)C2)C3)s1 [Example 79a, N-((5-chlorothiophen-2-yl)methyl)adamantan-1-amine] | 31 to 95 |
| c1csc(-c2ccc(CNC34CC5CC(CC(C5)C3)C4)nc2)c1 [Example 55a, Adamantan-1-yl-(5-thiophen-2-yl-pyridin-2-ylmethyl)-amine] | 31 to 95 |
| Clc1cccc2cc(CNC34CC5CC(CC(C5)C3)C4)sc12 [Example 183a, Adamantan-1-yl-(7-chloro-benzo[b]thiophen-2-ylmethyl)-amine] | 31 to 95 |
| C[Si](C)(C)c1ccc(CNC23CC4CC(CC(C4)C2)C3)cc1 [Example 6a, Adamantan-1-yl-(4-trimethylsilanyl-benzyl)-amine] | 0 to 30 |
| COC(=O)c1ccc(-c2ccc(CNC34CC5CC(CC(O)(C5)C3)C4)cc2)cc1 [Example 190a, 4′-[(3-Hydroxy-adamantan-1-ylamino)-methyl]-biphenyl-4-carboxylic acid methyl ester] | 0 to 30 |
| c1ccc2cc(COc3ccc(CNC45CC6CC(CC(C6)C4)C5)cc3)ccc2c1 [Example 38a, N-(4-(naphthalen-2-ylmethoxy)benzyl)adamantan-1-amine] | 0 to 30 |
| c1csc(-c2ncc(CNC34CC5CC(CC(C5)C3)C4)cn2)c1 [Example 61a, N-((2-(thiophen-2-yl)pyrimidin-5-yl)methyl)adamantan-1-amine] | 0 to 30 |
| OC12CC3CC(C1)CC(NCc1ccc(-c4ccccc4)s1)(C3)C2 [Example 191a, 3-[(5-Phenyl-thiophen-2-ylmethyl)-amino]adamantan-1-ol] | 0 to 30 |
| OC12CC3CC(C1)CC(NCc1cccs1)(C3)C2 [Example 187a, 3-[(Thiophen-2-ylmethyl)-amino]adamantan-1-ol] | 0 to 30 |
| COc1ccc2nc(CN(Cc3nc4ccc(OC)cc4[nH]3)C34CC5CC(CC(C5)C3)C4)[nH]c2c1 [Example 201a, Adamantan-1-yl-bis-(6-methoxy-1H-benzoimidazol-2-ylmethyl)-amine] | 0 to 30 |
| CC(NC12CC3CC(CC(C3)C1)C2)c1cc2ccccc2s1 (stereo not shown) [Example 178a] | 31 to 95 |
| c1ccc(-c2ncc(CNC34CC5CC(CC(C5)C3)C4)cn2)cc1 [Example 63a, N-((2-phenylpyrimidin-5-yl)methyl)adamantan-1-amine] | 0 to 30 |
| c1cc(-c2nc(CNC34CC5CC(CC(C5)C3)C4)no2)cs1 [Example 143a, N-((5-(thiophen-3-yl)-1,2,4-oxadiazol-3-yl)methyl)adamantan-1-amine] | 0 to 30 |
| c1coc(-c2cc(CNC34CC5CC(CC(C5)C3)C4)no2)c1 [Example 153a, N-((5-(furan-2-yl)isoxazol-3-yl)methyl)adamantan-1-amine] | 0 to 30 |
| Cc1ccc(-c2ccc(CNC34CC5CC(CC(C5)C3)C4)s2)s1 [Example 141a, N-((5′-methyl-[2,2′-bithiophen]-5-yl)methyl)adamantan-1-amine] | 0 to 30 |
| COc1ccc(-c2ccc(CNC34CC5CC(CC(C5)C3)C4)s2)cc1 [Example 113a, N-((5-(4-methoxyphenyl)thiophen-2-yl)methyl)adamantan-1-amine] | 0 to 30 |

Same assay, conditions: Table 1; 100 uM; Xenopus oocytes, pH 5.5, -20 mV; read-out: S31 OOcyte Inhibition at 100 uM (%)

| SMILES | inhibition at 100 µM [%] |
| --- | --- |
| CC(C)(C)CC(C)(C)NCc1ccc(O)cc1O [Example 112, 4-[(1,1,3,3-Tetramethyl-butylamino)-methyl]-benzene-1,3-diol] | 31 to 95 |
| c1ccc(CNC23CC4CC(CC(C4)C2)C3)cc1 [Example 8, Adamantan-1-yl-benzyl-amine] | 31 to 95 |
| NC(=O)COc1ccc(CNC23CC4CC(CC(C4)C2)C3)cc1 [Example 39, 2-(4-((Adamantan-1-ylamino)methyl)phenoxy)acetamide] | 0 to 30 |
| c1cc(-c2ccc(CNC34CC5CC(CC(C5)C3)C4)cc2)co1 [Example 42, N-(4-(Furan-3-yl)benzyl)adamantan-1-amine] | 0 to 30 |
| Cc1cc(CNC23CC4CC(CC(C4)C2)C3)ccc1O [Example 51, 4-(Adamantan-1-ylaminomethyl)-2-methyl-phenol] | 31 to 95 |
| CS(=O)(=O)c1ccc(CNC23CC4CC(CC(C4)C2)C3)cc1 [Example 25, Adamantan-1-yl-(4-methanesulfonyl-benzyl)-amine] | 31 to 95 |
| Oc1ccc(CNC2C3CC4CC(C3)CC2C4)cc1O (stereo not shown) [Example 101, 4-(Adamantan-2-ylaminomethyl)-benzene-1,2-diol] | 31 to 95 |
| Oc1ccc(CNC23CC4CC(CC(C4)C2)C3)cc1F [Example 48, 4-(Adamantan-1-ylaminomethyl)-2-fluoro-phenol] | 31 to 95 |
| Oc1c(F)cc(CNC23CC4CC(CC(C4)C2)C3)cc1Cl [Example 68, 4-(Adamantan-1-ylaminomethyl)-2-chloro-6-fluoro-phenol] | 31 to 95 |
| N#Cc1ccc(CNC23CC4CC(CC(C4)C2)C3)cc1 [Example 14, 4-(Adamantan-1-ylaminomethyl)-benzonitrile] | 31 to 95 |
| Oc1ccc(CNC23CC4CC(CC(C4)C2)C3)cc1O [Example 45, 4-(Adamantan-1-ylaminomethyl)-benzene-1,2-diol] | 31 to 95 |

Same assay, conditions: Table 3; 100 uM; Xenopus oocytes, pH 5.5, -20 mV; read-out: S31 OOcyte Inhibition at 100 uM (%)

| SMILES | inhibition at 100 µM [%] |
| --- | --- |
| Fc1cc(F)cc(-c2cc(CNC34CC5CC(CC(C5)C3)C4)no2)c1 [Example 33b, N-((5-(3,5-difluorophenyl)isoxazol-3-yl)methyl)adamantan-1-amine] | 0 to 30 |
| Clc1ccc(CNC23CC4CC(CC(C4)C2)C3)cc1 [Example 1b, N-(4-Chlorobenzyl)adamantan-1-amine] | 31 to 95 |
| CCOc1ccc(-c2ccc(CNC34CC5CC(CC(C5)C3)C4)s2)cc1 [Example 49b, N-((5-(4-Ethoxyphenyl)thiophen-2-yl)methyl)adamantan-1-amine] | 0 to 30 |
| FC(F)(F)c1nnc(CNC23CC4CC(CC(C4)C2)C3)o1 [Example 14b, N-((5-(trifluoromethyl)-1,3,4-oxadiazol-2-yl)methyl)adamantan-1-amine] | 0 to 30 |
| CSc1ccc(-c2cc(CNC34CC5CC(CC3C5)C4)no2)cc1 [Example 90b, (2R,3as,5S,6as)-N-((5-(4-(methylthio)phenyl)isoxazol-3-yl)methyl)octahydro-2,5-methanopentalen-3a-amine] | 0 to 30 |
| c1csc(-c2ccc(CNC34CC5CC(CC(C5)C3)C4)nn2)c1 [Example 71b, Adamantan-1-yl-(6-thiophen-2-yl-pyridazin-3-ylmethyl)-amine] | 0 to 30 |
| Oc1cc(-c2ccsc2)ccc1CNC12CC3CC(CC(C3)C1)C2 [Example 8b] | 0 to 30 |
| CCCSc1ncc(CNC23CC4CC(CC(C4)C2)C3)cn1 [Example 62b, N-((2-propylthiopyrimidin-5-yl)methyl)adamantan-1-amine] | 0 to 30 |
| CC(NC12CC3CC(CC(C3)C1)C2)c1ccc(-c2ccccc2)cc1 (stereo not shown) [Example 4b, N-(1-([1,1′-biphenyl]-4-yl)ethyl)adamantan-1-amine] | 31 to 95 |
| Cc1noc(C)c1-c1nc(CNC23CC4CC(CC(C4)C2)C3)no1 [Example 25b, N-((5-(3,5-dimethylisoxazol-4-yl)-1,2,4-oxadiazol-3-yl)methyl)adamantan-1-amine] | 0 to 30 |
